Test results reported in the supplement of paper PMC10307832.

Tests used:
Experiment in all cases: relative viability (nuclei count vs DMSO), 5 days (fraction); higher = more cells survive
GSK126 + Linsitinib = compound: CC[C@H](C)N1C=C(C2=C(C=C(C=C21)C3=CN=C(C=C3)N4CCNCC4)C(=O)NCC5=C(C=C(NC5=O)C)C)C [GSK126] + C[C@]1(O)C[C@@H](c2nc(-c3ccc4ccc(-c5ccccc5)nc4c3)c3c(N)nccn32)C1 [Linsitinib] (partner 1 µM)
Method in brief: (§1)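 Relative viability divides the nuclei count in treated wells by that in vehicle wells. Lung cancer cell lines were seeded in 1536-well plates, dosed by pin tool the next day, and fixed and stained after 5 days in one step with final 0.05% Triton X-100, 1% formaldehyde and 1 ug/ml Hoechst. Dosing was a single drug or a fixed anchor-drug dose plus five library-drug doses (not always all listed) in √10 steps, and values are medians of duplicate plates imaged at 4×.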

GSK126 + Pictilisib = compound: CC[C@H](C)N1C=C(C2=C(C=C(C=C21)C3=CN=C(C=C3)N4CCNCC4)C(=O)NCC5=C(C=C(NC5=O)C)C)C [GSK126] + CS(=O)(=O)N1CCN(Cc2cc3nc(-c4cccc5[nH]ncc45)nc(N4CCOCC4)c3s2)CC1 [Pictilisib] (partner 1 µM)
Method in brief: as §1

MLN4924 + Pemetrexed = compound: NS(=O)(=O)OC[C@@H]1C[C@@H](n2ccc3c(N[C@H]4CCc5ccccc54)ncnc32)C[C@@H]1O [MLN4924] + Nc1nc2[nH]cc(CCc3ccc(C(=O)N[C@@H](CCC(=O)O)C(=O)O)cc3)c2c(=O)[nH]1 [Pemetrexed] (partner 0.2 µM)
Method in brief: as §1

MLN4924 + Palbociclib = compound: NS(=O)(=O)OC[C@@H]1C[C@@H](n2ccc3c(N[C@H]4CCc5ccccc54)ncnc32)C[C@@H]1O [MLN4924] + CC(=O)c1c(C)c2cnc(Nc3ccc(N4CCNCC4)cn3)nc2n(C2CCCC2)c1=O [Palbociclib] (partner 0.5 µM)
Method in brief: as §1

Cell Line | relative viability (GSK126 + Linsitinib; first compound 0.08 µM) | relative viability (GSK126 + Linsitinib; first compound 0.253 µM) | relative viability (GSK126 + Linsitinib; first compound 0.8 µM) | relative viability (GSK126 + Linsitinib; first compound 2.53 µM) | relative viability (GSK126 + Linsitinib; first compound 8 µM) | relative viability (GSK126 + Pictilisib; first compound 0.08 µM) | relative viability (GSK126 + Pictilisib; first compound 0.253 µM) | relative viability (GSK126 + Pictilisib; first compound 0.8 µM) | relative viability (GSK126 + Pictilisib; first compound 2.53 µM) | relative viability (GSK126 + Pictilisib; first compound 8 µM) | relative viability (MLN4924 + Pemetrexed; first compound 0.04 µM) | relative viability (MLN4924 + Pemetrexed; first compound 0.1265 µM) | relative viability (MLN4924 + Pemetrexed; first compound 0.4 µM) | relative viability (MLN4924 + Pemetrexed; first compound 1.265 µM) | relative viability (MLN4924 + Pemetrexed; first compound 4 µM) | relative viability (MLN4924 + Palbociclib; first compound 0.04 µM) | relative viability (MLN4924 + Palbociclib; first compound 0.1265 µM) | relative viability (MLN4924 + Palbociclib; first compound 0.4 µM) | relative viability (MLN4924 + Palbociclib; first compound 1.265 µM) | relative viability (MLN4924 + Palbociclib; first compound 4 µM)
HCC-366 | 0.684 | 0.634 | 0.602 | 0.678 | 0.846 | 0.132 | 0.138 | 0.13 | 0.0968 | 0.126 | 0.161 | 0.153 | 0.129 | 0.107 | 0.0292 | 0.389 | 0.374 | 0.336 | 0.167 | 0.0328
NCI-H838 | 1.12 | 0.979 | 0.952 | 0.906 | 0.866 | 0.507 | 0.35 | 0.403 | 0.426 | 0.369 | 0.225 | 0.2 | 0.188 | 0.173 | 0.164 | 0.253 | 0.256 | 0.175 | 0.138 | 0.138
NCI-H2023 | 0.778 | 0.679 | 0.644 | 0.757 | 0.755 | 0.26 | 0.253 | 0.247 | 0.306 | 0.256 | 0.219 | 0.234 | 0.123 | 0.0635 | 0.09 | 0.496 | 0.366 | 0.207 | 0.0822 | 0.0604
HCC-78 | 0.662 | 0.547 | 0.518 | 0.465 | 0.47 | 0.25 | 0.201 | 0.178 | 0.217 | 0.237 | 0.882 | 0.899 | 0.918 | 0.881 | 0.892 | 0.52 | 0.462 | 0.472 | 0.422 | 0.418
EPLC-272H | 1.4 | 1.16 | 1.06 | 1.17 | 1.23 | 0.35 | 0.337 | 0.26 | 0.329 | 0.3 | 0.242 | 0.195 | 0.0979 | 0.128 | 0.155 | 0.29 | 0.281 | 0.102 | 0.232 | 0.181
LCLC-97TM1 | 0.164 |  | 0.179 | 0.225 | 0.204 | 0.22 |  | 0.229 | 0.285 | 0.18 | 0.147 | 0.18 | 0.0833 | 0.0476 | 0.0536 | 0.185 | 0.114 | 0.0981 | 0.0625 | 0.0723
LK-2 | 0.397 | 0.485 | 0.626 | 0.944 | 0.352 | 0.772 | 0.54 | 0.637 | 0.658 | 0.486 | 0.25 | 0.248 | 0.203 | 0.117 | 0.106 | 0.508 | 0.342 | 0.284 | 0.138 | 0.161
CAL-12T | 0.964 | 0.94 | 0.78 | 0.918 | 0.868 | 0.466 | 0.499 | 0.357 | 0.596 | 0.343 | 1.06 | 1.1 | 0.67 | 0.636 | 0.224 | 0.403 | 0.254 | 0.161 | 0.122 | 0.182
NCI-H322M | 0.953 | 0.949 | 0.884 | 1.01 | 0.937 | 0.431 | 0.517 | 0.507 | 0.509 | 0.454 | 0.719 | 0.776 | 0.549 | 0.3 | 0.422 | 0.56 | 0.656 | 0.504 | 0.389 | 0.395
NCI-H2126 | 0.759 | 0.732 | 0.725 | 0.721 | 0.713 | 0.497 | 0.531 | 0.523 | 0.496 | 0.502 | 0.659 | 0.676 | 0.435 | 0.278 | 0.281 | 0.403 | 0.424 | 0.397 | 0.327 | 0.237
LU99A | 0.52 | 0.513 | 0.605 | 0.503 | 0.652 | 0.33 | 0.32 | 0.284 | 0.342 | 0.362 | 0.185 | 0.175 | 0.18 | 0.189 | 0.129 | 0.414 | 0.333 | 0.318 | 0.163 | 0.125
NCI-H1666 | 0.857 | 1.01 | 0.898 | 0.768 | 1.08 | 0.558 | 0.483 | 0.379 | 0.384 | 0.528 | 0.734 | 0.742 | 0.645 | 0.409 | 0.488 | 0.553 | 0.549 | 0.693 | 0.492 | 0.46
NCI-H520 | 1.12 | 1.03 | 0.915 | 1.07 | 1.11 | 0.265 | 0.261 | 0.271 | 0.256 | 0.281 | 0.489 | 0.368 | 0.271 | 0.193 | 0.172 | 0.224 | 0.226 | 0.153 | 0.145 | 0.156
